pKd: −log10 of the molar value. Read-outs that look alike come from different tables or passages of the source.
Columns and labels:
NET = conditions: literature value; 76 (Additional file 1); cited from earlier work
D2 [1] = conditions: PET, cited from earlier work
[2] = High-throughput brain slice method (Vu,brain); conditions: unbound volume of distribution in brain, measured in rat brain slices, LC-MS/MS (no fu,brain tabulated in Table S1)
Amyloid [3] = target: Amyloid; set-up: method as in ref 12, 13, 14, 15 (Additional file 1); conditions: literature value; 15 (Additional file 1); cited from earlier work
AchE = conditions: literature value; ref 18 (Additional file 1); cited from earlier work
[4] = Unbound fraction in brain homogenate (fu,brain); Vu,brain calculated from it with pH-partition model; conditions: calculated from reported fu,brain and tracer pKa with pH-partition model (tracers with fu,brain tabulated, footnote h of Table S1)
Protocol: The unbound volume of distribution in the brain (Vu,brain) describing the extent of non-specific partitioning was determined for 31 tracers using a previously described high-throughput brain slice method [11].

[5] = set-up: method as in ref 10 (a number printed in a supplementary file, which may have a reference list of its own: not looked up in the article's list); conditions: unbound fraction in homogenized brain tissue, reported; cited from earlier work
D2 [6] = target: D2; set-up: method as in ref 22, 31, 62, 82 (Additional file 1); conditions: literature value; 82 (Additional file 1); cited from earlier work
GABA = target: GABA; set-up: method as in ref 33, 74 (Additional file 1); conditions: literature value; 74 (Additional file 1); cited from earlier work
KOR = target: KOR; set-up: method as in ref 35 (Additional file 1); conditions: literature value; ref 35 (Additional file 1); cited from earlier work
SERT = target: SERT; set-up: method as in ref 5, 19, 43, 45, 67 (Additional file 1); conditions: literature value; 67 (Additional file 1); cited from earlier work
DAT [7] = target: DAT; set-up: method as in ref 26, 31, 57 (Additional file 1); conditions: literature value; 57 (Additional file 1); cited from earlier work
nAChr a4b2 = conditions: PET, thalamus, ref 3 (Additional file 1), cited from earlier work
Amyloid [8] = conditions: PET, cortex, 61 (Additional file 1), cited from earlier work
5HT2a = conditions: PET, temporal cortex, 47 (Additional file 1), cited from earlier work
DAT [9] = conditions: PET, striatum, 58 (Additional file 1), cited from earlier work
TSPO [10] = target: TSPO; set-up: method as in ref 28, 29, 55 (Additional file 1); conditions: literature value; 55 (Additional file 1); cited from earlier work
TSPO [11] = conditions: PET, basal ganglia, 81 (Additional file 1), cited from earlier work
5HT1a = conditions: PET, hippocampus, 65 (Additional file 1), cited from earlier work
[12] = caudate/striatum, ref 23 (Additional file 1)

CNCCC(Oc1ccccc1OC)c1ccccc1 (racemic) [[^11C]Nisoxetine]
pKd (NET): 9.14

CCN1CCC[C@H]1CNC(=O)c1c(O)c(Cl)cc(Cl)c1O[11CH3] (racemic) [[^11C]Raclopride]
BP ND (D2 [1]; [12]): 2.6

Cc1ccc(N2CCN([11CH3])CC2)c2oc(C(=O)Nc3ccc(N4CCOCC4)cc3)cc(=O)c12 [[^11C]AZ10419369]
V u,brain [2]: 30 mL/g brain

CNc1ccc(-c2nc3ccc(O)cc3s2)cn1 [[^11C]AZD2184]
pKd (Amyloid [3]): 8.31

[11CH3]Nc1ccc(-c2nc3ccc(O)cc3s2)cn1 [[^11C]AZD2184]
V u,brain [2]: 33 mL/g brain

CN1C(=O)Cc2cc3c(CCC4CCN(Cc5ccccc5)CC4)noc3cc21 [[^11C]CP-126998]
pKd (AchE): 9.32

[11CH3]N1C(=O)Cc2cc3c(CCC4CCN(Cc5ccccc5)CC4)noc3cc21 [[^11C]CP-126998]
V u,brain [4]: 41 mL/g brain | fu,brain [5]: 0.07

CN([11CH3])Cc1ccccc1Sc1ccc(C#N)cc1N [[^11C]DASB]
V u,brain [4]: 31 mL/g brain | fu,brain [5]: 0.09

CCN1CCC[C@H]1CNC(=O)c1cc(Br)cc(OC)c1OC [[^11C]FLB457]
pKd (D2 [6]): 10.70

CCN1CCC[C@H]1CNC(=O)c1cc(Br)cc(OC)c1O[11CH3] [[^11C]FLB457]
V u,brain [4]: 26 mL/g brain | fu,brain [5]: 0.11

CCOC(=O)c1ncn2c1CN(C)C(=O)c1cc(F)ccc1-2 [[^11C]Flumazenil]
pKd (GABA): 9.15

COC(=O)N1CCN(C(=O)Cc2ccc(Cl)c(Cl)c2)[C@H](CN2CCCC2)C1 [[^11C]GR103545]
pKd (KOR): 10.32

[11CH3]OC(=O)N1CCN(C(=O)Cc2ccc(Cl)c(Cl)c2)[C@H](CN2CCCC2)C1 [[^11C]GR103545]
V u,brain [4]: 41 mL/g brain | fu,brain [5]: 0.07

[11CH3]NC(=O)c1ccc(Oc2ccc3c(c2)CCN(C2CCC2)CC3)nc1 [[^11C]GSK189254A]
fu,brain [5]: 0.24

Cc1nccc2c1[nH]c1cc(O[11CH3])ccc12 [[^11C]Harmine]
V u,brain [4]: 25 mL/g brain | fu,brain [5]: 0.04

Cc1ccc(Sc2ccccc2CN(C)C)c(N)c1 [[^11C]MADAM]
pKd (SERT): 10.22

Cc1ccc(Sc2ccccc2CN(C)[11CH3])c(N)c1 [[^11C]MADAM]
V u,brain [2]: 90 mL/g brain

COc1c(O[11CH3])cccc1[C@H](O)C1CCN(CCc2ccc(F)cc2)CC1 [[^11C]MDL100907]
V u,brain [4]: 17 mL/g brain

CSc1ccc([C@H]2CN3CCC[C@H]3c3ccccc32)cc1 [[^11C]McN5652]
pKd (SERT): 9.70

[11CH3]Sc1ccc([C@H]2CN3CCC[C@H]3c3ccccc32)cc1 [[^11C]McN5652]
V u,brain [2]: 238 mL/g brain

COc1ccccc1O[C@@H](c1ccccc1)[C@H]1CNCCO1 [[^11C]MeNER]
pKd (NET): 8.60

[11CH3]Oc1ccccc1O[C@@H](c1ccccc1)[C@H]1CNCCO1 [[^11C]MeNER]
V u,brain [4]: 31 mL/g brain | fu,brain [5]: 0.07

C[C@@H](N[C@@H]1C[C@H](c2cccc(O[11CH3])c2)N(c2ccc(C(F)(F)F)cc2)C1=O)c1ccccc1 [[^11C]MePPEP]
V u,brain [2]: 296 mL/g brain

[11CH3]N1CCc2cc(Cl)c(O)cc2[C@@H](c2cccc3ccoc23)C1 [[^11C]NNC112]
V u,brain [2]: 70 mL/g brain

COC(=O)C1C(c2ccc(C)cc2)CC2CCC1N2CC=CI (centres unmarked) [[^11C]PE2I]
pKd (DAT [7]): 8.31

Cc1ccc(C2CC3CCC(C2C(=O)O[11CH3])N3CC=CI)cc1 (centres unmarked) [[^11C]PE2I]
V u,brain [2]: 39 mL/g brain

[11CH3]Nc1ccc(-c2nc3ccc(O)cc3s2)cc1 [[^11C]PIB]
fu,brain [5]: 0.004

CCC(C)N(C)C(=O)c1cc2ccccc2c(-c2ccccc2Cl)n1 (centres unmarked) [[^11C]PK11195]
V u,brain [4]: 59 mL/g brain | fu,brain [5]: 0.01

CCN1CCC[C@H]1CNC(=O)c1c(OC)ccc(Br)c1OC [[^11C]Remoxipride]
pKd (D2 [6]): 6.57

[11CH3]N1CCc2cc(Cl)c(O)cc2[C@@H](c2ccccc2)C1 [[^11C]SCH23390]
V u,brain [4]: 32 mL/g brain | fu,brain [5]: 0.06

COc1ccccc1N1CCN(CCN(c2ccccn2)[11C](=O)C2CCCCC2)CC1 [[^11C]WAY100635]
V u,brain [2]: 14 mL/g brain

[18F]c1ncccc1OC[C@@H]1CCN1 [[^18 F]2-FA-85380]
BP ND (nAChr a4b2): 1.8 | BP ND (nAChr a4b2; listed as [^18F]2-FA-85380): 1.8[3]

CNc1ccc(-c2cc3cc(O)ccc3o2)c(F)n1 [[^18 F]AZD4694]
pKd (Amyloid [3]): 8.64

CNc1ccc(-c2cc3cc(O)ccc3o2)c([18F])n1 [[^18 F]AZD4694]
BP ND (Amyloid [8]): 1.2 | BP ND (Amyloid [8]; listed as [^11C]AZD4694): 1.2[16] | V u,brain [2]: 205 mL/g brain

O=C(c1ccc([18F])cc1)C1CCN(CCn2c(=S)[nH]c3ccccc3c2=O)CC1 [[^18 F]Altanserin]
V u,brain [4]: 122 mL/g brain | BP ND (5HT2a): 1.06 | BP ND (5HT2a; listed as [^18F]Altanserin): 1.06[8] | fu,brain [5]: 0.02

Cc1ccc([C@H]2C[C@@H]3CC[C@H]([C@H]2C(=O)OCCF)N3C/C=C/I)cc1 [[^18 F]FE-PE2I]
pKd (DAT [7]): 7.92

Cc1ccc([C@H]2C[C@@H]3CC[C@H]([C@H]2C(=O)OCC[18F])N3C/C=C/I)cc1 [[^18 F]FE-PE2I]
BP ND (DAT [9]): 4.1 | BP ND (DAT [9]; listed as [^11C]FE-PE2I): 4.1[27] | V u,brain [2]: 62 mL/g brain

CC(=O)N(Cc1ccccc1OCCF)c1cnccc1Oc1ccccc1 [[^18 F]FEPPA]
pKd (TSPO [10]): 10.15

CC(=O)N(Cc1ccccc1OCC[18F])c1cnccc1Oc1ccccc1 [[^18 F]FEPPA]
V u,brain [4]: 15 mL/g brain | BP ND (TSPO [11]): 4.4 | BP ND (TSPO [11]; listed as [^18F]FEPPA): 4.4[30] | fu,brain [5]: 0.07

COC(=O)[C@H]1[C@@H](c2ccc(I)cc2)C[C@@H]2CC[C@H]1N2CCCF [[^18 F]FP-CIT]
pKd (DAT [7]): 7.48

COC(=O)[C@H]1[C@@H](c2ccc(I)cc2)C[C@@H]2CC[C@H]1N2CCC[18F] [[^18 F]FP-CIT]
BP ND (DAT [9]): 1.0 | BP ND (DAT [9]; listed as [^18F]FP-CIT): 1[32] | V u,brain [2]: 36 mL/g brain

C=CCN1CCC[C@H]1CNC(=O)c1cc(CCCF)cc(OC)c1OC [[^18 F]Fallypride]
pKd (D2 [6]): 10.52

C=CCN1CCC[C@H]1CNC(=O)c1cc(CCC[18F])cc(OC)c1OC [[^18 F]Fallypride]
V u,brain [4]: 18 mL/g brain | BP ND (D2 [1]; [12]): 22.2 | BP ND (D2 [1]; caudate/striatum, ref 23 (Additional file 1), listed as [^18F]Fallypride): 22.2[23] | BP ND (D2 [1]; thalamus, 32 (Additional file 1)): 2.11 | BP ND (D2 [1]; thalamus, 32 (Additional file 1), listed as [^18F]Fallypride): 2.11[23] | fu,brain [5]: 0.15

COc1ccccc1N1CCN(CCN(C(=O)c2ccc([18F])cc2)c2ccccn2)CC1 [[^18 F]MPPF]
V u,brain [4]: 14 mL/g brain | fu,brain [5]: 0.1 | BP ND (5HT1a): 1.6 | BP ND (5HT1a; listed as [^18F]MPPF): 1.6[51]

O=C(CCCN1CCC2(CC1)C(=O)NCN2c1ccccc1)c1ccc([18F])cc1 [[^18 F]Spiperone]
V u,brain [2]: 147 mL/g brain

From paper PMC4452637, “Identification of positron emission tomography (PET) tracer candidates by prediction of the target-bound fraction in the brain” (EJNMMI Research, 2014)
